Test results taken from patent US5990083A, “Multicatalytic protease inhibitors” (Cephalon, Inc., priority 1997, dated 1999).

What was measured:
human MCP = biological target: T1, human MCP (Homo sapiens, UniProt P28074+Q99436); test: Determination of IC50 values for MCP inhibitors (chymotrypsin-like or trypsin-like activity of MCP); type: biochemical; settings: Table 5, first series; enzyme incubated with inhibitor 15 minutes at 37° C. prior to substrate
T1 construct: Samples of human liver and brain obtained post-mortem were used for isolation and partial purification of MCP; from tissue; host or cells: human liver and brain, post-mortem
Description: Samples of human liver and brain obtained post-mortem were used for isolation and partial purification of MCP by ion-exchange chromatography, ammonium sulfate precipitation, and gel filtration (e.g., Driscoll and Goldberg, Proc. Natl. Acad. Sci. 86, 787-791 (1989); Yamamoto et al., Biochim, Biophys. Acta 882, 297-304 (1986). For either starting material, tissue was homogenized in 10 volumes of 20 mM Tris-HCl (pH 7.5) containing 20% glycerol. Following centrifugation at 40,000×g for 30 minutes, proteolytic activity of the chymotrypsin-like component of MCP could be detected in the supernatant (see below). The supernatant was fractionated on a DEAE-Sepharose Fast Flow column equilibrated in homogenization buffer. For each liter of supernatant, 250 ml of resin was used. Following sample loading, the column was washed with ^~ 10 volumes homogenization buffer, and proteins were eluted with a linear NaCl gradient of from 0 to 400 mM (21 for 250 ml resin). Fractions were assayed for MCP activity, and the active fractions were pooled and subjected to precipitation with (NH4)2 SO4 at 80% saturation. Precipitated proteins were collected by centrifugation, resuspended in homogenization buffer, and loaded on a Sephacryl S300HR column (500 ml resin volume) that had been standardized using bovine serum albumin (68 kDa). A single peak of MCP activity was eluted with a molecular weight of ^~ 650 kDa. This preparation was free of other measurable proteolytic activities and maintained its MCP activity upon storage at 4° C. for >6 months. This preparation was used for most of the experiments. Further fractionation of the preparation on an hydroxyapatite-Ultrogel column (Yamamoto et al., supra) yielded a more highly purified enzyme, which according to denaturing SDS-polyacrylamide gel electrophoresis was comprised of the expected >10 subunits ranging in Mr from 20 to 35 kDa.
The procedure for MPC isolation described above generated an enzyme complex whose proteolytic activities were latent, but which could be activated by addition of low concentrations (0.02-0.05%) of SDS (Yamamoto et al., supra). The chymotrypsin-like activity was assayed according to the following procedure: in 96 well microtiter plates, human MCP was diluted 4 to 10-fold in homogenization buffer containing 0.04% SDS. A calorimetric substrate MeOSuc-EVKM-para-nitroanilide (methoxysuccinyl-Glu-Val-Lys-Met-pNa), purchased from Bachem Bioscience Inc., King of Prussia, Pennsylvania was added to a final concentration of 100 μM from a stock solution of 10 mM in dimethylsulfoxide. Reaction volumes were 200 μl per well. After incubation for various periods of time at 37° C., the concentration of free pNa was determined on a Biotech EL-340 microplate reader, reading absorption at 490 nm. Protease activity was determined under conditions in which substrate hydrolysis increased linearly with time and the change in absorption was proportional to the concentration of free pNa. Alternatively, a fluorogenic substrate was used, methoxysuccinyl-Phe-Leu-Phe-amidomethylcoumarin (Enzyme Systems Products, Dublin, Calif.), and the change in fluorescence monitored at an excitation of 390 nm, and an emission at 460 nm.
The trypsin-like activity of human MCP was assayed as described above with the following modifications. Reactions were carried out in Tris-glycerol buffer (pH 9.5) supplemented with 1 mM 2-mercaptoethanol, and the substrate was a fluorogenic substrate, Benzyloxycarbonyl--Phe--Arg--AMC (100 μM).
After incubation for various periods of time at 37° C., the concentration of free AMC was determined on a Fluoroskan II spectrofluorimeter with an excitation filter of 390 nm and an emission filter of 460 nm. Protease activity was determined under conditions in which substrate hydrolysis increased linearly with time and the change in fluorescence was proportional to the concentration of free AMC. […]

[1] = test system: unweighting atrophy of the soleus muscle; test: Inhibition of unweighting atrophy of the soleus muscle in juvenile rats (muscle protein content); type: in vivo, rat; settings: for Protein, End (day 3 of unweighting) / Effect (%), change in protein content during day 3 of unweighting: Table 2; for Protein, End (day 3 of unweighting): 24 hours after in situ soleus injection at day 2 of unweighting, mersalyl 200 nM aqueous; for Protein, End (day 3 of unweighting) / Protein, Treatment (unweighted muscle): MCP inhibitor 1 mM in DMSO; for Effect (%), change in protein content during day 3 of unweighting: End versus Start (estimated day 2 content); for Effect (%) on unweighted muscle protein / Protein, Treatment (unweighted muscle): Table 3; for Effect (%) on unweighted muscle protein: Treatment versus Vehicle contralateral muscle; for Protein, Treatment (unweighted muscle): treated soleus, contralateral muscle received vehicle, mersalyl 200 nM
Description: The effect of several inhibitors on the unweighting atrophy of the soleus muscle in juvenile rats was determined. See Tischler, M. E. (1990) Metabolism 39/7: 756-763 (hereinafter "Tischler--1990") for a general discussion of the procedure.
(§1) Juvenile female Sprague-Dawley rates (80-90 g) were tail-cast, hind limb suspended as in Jetspers, S. R. and Tischler, M. E., (1984) J. Appl. Physiol. 57: 1472-1479. The animal's hind limbs were elevated above the floor of the cage with each animal housed individually. Animals had free access to food and water, and were weighed at the time of suspension and at time of termination. During the suspension period the animals were checked daily to ensure that their toes were not touching the floor of the cage, and that there was no swelling of the tail due to the cast.
Each experiment began with the suspension of 20 rats which were randomly divided into 4 groups of 5 animals each. Group A was suspended for just 2 days and provided baseline data to approximate the soleus muscle size in other animals suspended for longer times. Average body weights for the groups at the outset of the study were compared and used as a correction factor for body size differences. […] See Tischler--1990. At 2 days after unweighting commenced, an aqueous solution of mersalyl (200 nM; 4 μl/100 g initial body wt) was injected into one soleus, as described previously. The contralateral muscle was injected with a similar volume of 0.9% saline ("Vehicle"). The animals were maintained under Innovar-vet (10 μl/100 g body wt) tranquilization during the in situ injection procedure. After the injections, the animals were suspended for an additional 24 hours and the soleus was removed. Groups C and D for each experiment were used for testing each of two different embodiments of the disclosed compounds.
(§2) Animals were treated as in group B, except that 1 mM MCP inhibitor, contained in dimethysulfoxide (DMSO), was injected into the soleus of one leg and DMSO only into the contralateral soleus. Thus each experiment consisted of two control groups and the testing of MCP inhibitors of the invention. The completion of five such experiments with different pairs of inhibitors provided for an "n" value of 10 for testing each MCP inhibitor and with each tested in two different shipments of animals.
(§3) After the animal was sacrificed, the soleus was excised, trimmed of fat and connective tissue, and carefully weighed. The muscle was then homogenized in 10% trichloroacetic acid (TCA) and the precipitated protein pelleted by centrifugation. The pellet was then washed once with 10% TCA and once with ethanol:ether (1:1). The final pellet was solubilized in 4 ml of 1N sodium hydroxide. The sample was then analyzed for protein content by the biuret procedure, using albumin as a standard.
(§4) The effect of MCP inhibitors on total muscle protein content was examined primarily by paired comparison with the untreated contralateral muscle. The ratio of contents was calculated and then analyzed statistically by analysis of variance ("ANOVA"). The left leg was always the treated leg so that the protein content ratios could be compared to the non-treated control animals as well. In this way, a significant difference can be shown by comparing the protein content of the two legs, as well as the relative effectiveness of the tested MCP inhibitors. A paired student test was also performed for the effect of each separate treatment. The non-treated control data also provided an estimate of protein content of day 2. This allowed approximation of the protein changes over the 24 hours of treatment for each of the Groups B, C, and D.

control soleus muscle = test: Effect of MCP inhibitors on control muscle protein content; type: in vivo, rat; settings: Table 1; treated soleus versus vehicle-injected contralateral muscle
Excerpt: as §1, §2, §3
as §4, with “A paired student test was also performed for the effect of each separate treatment. The non-treated control data also provided an estimate of protein content of day 2. This allowed approximation of the protein changes over the 24 hours of treatment for each of the Groups B, C, and D.” left out

[2] = test system: Ile113→Thr mutant SOD-1 in human 293 cells; test: SOD-1 levels in transiently transfected 293 cells (immunoblot); settings: 5 μM, 24 hours, FIG. 5
Description: The human kidney cell line designated 293 (human 293 cells or 293 cells)was obtained from the American Type Culture Collection (ATCC), 12301 Parklawn Drive, Rockville, Md., 20852 (ATCC #CRL 1573) and grown in Dulbecco's modified Eagle's medium with 4.6 g/L glucose, 10% heat-inactivated horse serum (Gibco/Life Technologies Inc. Gaithersburg, Md.). The human 293 cells were maintained at 37° C. in an atmosphere of 5% CO2. The 293 cells were transiently transfected using the calcium phosphate method (Chen, C. et al., Biotechniques 6: 632 (1988). The pCMV-113 SOD-1 expression vector was introduced into 293 cells and 24 hours later, the cells were incubated with either compound 34, compound 14, or compound 24, all at a concentration of 5 μM, for a duration of 24 hours. The known MCP and other protease inhibitory compounds were solubilized in dimethyl sulfoxide (DMSO). Other 293 cell cultures were incubated with an equal volume of DMSO or left in medium only as negative controls.
Approximately 48 hours prior to receiving test compounds, 5×10^5 293 cells were seeded in 36 mm dishes and maintained at 37° C. in an atmosphere of 5% CO2. Cells were incubated with MCP inhibitors (compound 34, 14 or 24) or with DMSO as a negative control for a duration of 24 hours. Cell lysates were prepared by lysing the cells in approximately 75 μl of phosphate-buffered saline (PBS) by freeze/thaw cycling. Protein concentrations of the cell lysates were determined using the BCA method (Pierce, Rockford, Ill.) and 2 to 2.5 μg of each sample was electrophoresed on a 4-20% polyacrylamide geol (Novex, San Diego, Calif.) using a Tris/glycine/SDS (25 mM Tris/192 mM glycine/0.1% SDS) buffer system. […] Stained bands corresponding to SOD-1 protein were quantitated using a DocuGel V image analysis system and RFLPscan software (Scanalytics, Billerica, Mass.). Levels of SOD-1 are expressed as units of induction relative to the negative control (i.e., units of experimental divided by units of control).

| Structure (SMILES) | IC50 (human MCP) | Protein, End (day 3 of unweighting) [1] | Effect (%), change in protein content during day 3 of unweighting [1] | Effect (%) on unweighted muscle protein [1] | Protein, Treatment (unweighted muscle) [1] | Protein, Treatment (control muscle) (control soleus muscle) | SOD-1 levels compared to controls [2] |
| --- | --- | --- | --- | --- | --- | --- | --- |
| CC(C)C[C@@H](C=NNC(N)=O)NC(=O)[C@H](CCCNC(=N)N[N+](=O)[O-])NC(=O)C(CCCCCCCCC#N)C1CCCC1 (stereo partly drawn) [Compound 16, 10-cyano-2-cyclopentyl-decanoyl-N g-nitro-L-arginyl-L-leucinal semicarbazone] | 100 nM | 6.0 mg/muscle | -5% | 0% | 6.0 mg/muscle |  |  |
| COC(=O)CCCCCCCC(=O)N[C@@H](CCCN=C(N)NS(=O)(=O)c1c(C)cc(OC)c(C)c1C)C(=O)N[C@H](C=O)CC(C)C [Compound 34, Monomethylazelayl-N^g-(4-methoxy,2,3,6-trimethylbenzene-1-sulfonyl)-L-arginyl-L-leucinal] | 80 nM | 6.6 mg/muscle | +5% | 12% | 6.6 mg/muscle | 6.3 mg/muscle | modestly elevated |
| CC(C)C[C@@H](C=O)NC(=O)[C@H](CCCNC(=N)N[N+](=O)[O-])NC(=O)C(CCCCCCCCN1C(=O)c2ccccc2C1=O)C1CCCC1 (stereo partly drawn) [Compound 24, 2-cyclopentyl-10-N-phthalimido-decanoyl-N^g-nitro-L-arginyl-L-leucinal] | 2 nM |  |  |  |  |  | modestly elevated |
| COC(CNC(=O)c1ccccc1OCC(=O)O)[CH2][Hg][OH] (stereo not drawn) [Mersalyl, reference compound] |  | 6.6 mg/muscle | +3% | 14% | 6.6 mg/muscle |  |  |
